This is an account of results in patent US20100240674A1 (priority 2007, published 2010).

The test system of data set [1] is NPC mice. In words: Hanging Test (locomotor activity). The data set is classed as in vivo. The conditions noted are these: 50 mg/Kg daily intraperitoneally for 28 days, vs saline. The source says:
To test locomotor activity, the Hanging Test that has been validated for these mice was used (Voikar et al., 2002). For this test a score from 0 to 5 was assigned to the mice based on their motor capabilities. To determine the score, the animal is observed during 30 seconds, a value is assigned according to the following scale: 0, if it falls before 10 seconds; 1, if it hangs from the bar with its fore paws; 2, if it tries to climb on the bar with its hind paws; 3, if it grabs the bar with its fore paws and one or two hind paws; 4, if it grabs the bar with all four paws and its tail; and 5, if it actively escapes from the bar and reaches one of the ends of the bar.

The subject of data set [2] is cerebellar Purkinje neurons. The source says: In all experiments discussed herein, “NPC mice” refers to mice deficient in the NPC1 protein or NPC1−/−. In FIG. 1, the cerebellums of 4 week old NPC mice and wild type mice are shown at a, b, g and h. The cerebellums of 6 week old NPC mice and wild type mice are shown at c, d, i and j. The cerebellums of 8 week old NPC mice and wild type mice are shown at e, f, k and l. The immunohistochemical procedures utilized were: anti-c-Abl, (K12; 1:500) and anti-p73 (H-79; 1:250) (Santa Cruz Biotech, Santa Cruz, Calif.), and anti-calbindin D-28K (1:1,000). Immunohistochemical procedures were carried out by means of histological stain on floating sections. Immunocytochemistry was performed using the avidin biotin horseradish peroxidase complex (ABC) method (Vector Laboratories, Burlingame, Calif.) and sections were mounted on gelatin pre-coated slides and air-dried, then dehydrated in graded ethanol and finally covered with Permount.
The immunohistochemical protocols used are the same as those described above relating to FIG. 1.
The following process was used for in situ apoptosis detection: the terminal deoxynucleotidyl transferase mediated deoxyuridine-biotin (dUTP) nick end labeling (TUNEL) was performed using the apoptosis detection kit purchased from Roche Molecular Biochemicals (Mannheim, Germany). The sections were first incubated in a blocking solution containing 3% H2O2 in methanol. Afterward, slices were incubated in 0.1% Triton X-100 in 0.1% sodium citrate over-night at RT to increase the permeability. After being washed twice in PBS, pH 7.4, the sections were immersed in the TUNEL reaction mixture, containing dUTP-fluorescein and terminal deoxynucleotidyl transferase (TdT) conjugated for 60 minutes at 37° C. in a dark, humid atmosphere. The process was terminated by washing the sections twice in PBS buffer. For the immunofluorescence (IF) sections slides were incubated overnight with rabbit polyclonal anti-calbindin D-28K (1:1,000; Chemicon International, Temecula, Calif.). […] Fluorescent images were captured with an Olympus BX51 microscope and analyzed with IMAGE pro-express.

Data set [3] concerns cerebella of NPC mice. In words: TUNEL immunofluorescence apoptosis analysis on cerebella. The settings on record: 50 mg/Kg daily intraperitoneally for 28 days, vs saline.

Structures can show the parent of a compound that is named as a salt.

On to `Cc1ccc(NC(=O)c2ccc(CN3CCN(C)CC3)cc2)cc1Nc1nccc(-c2cccnc2)n1` [imatinib mesylate, 4-(4-methylpiperazin-1-ylmethyl)-N-[4-methyl-3-((4-pyridin-3-yl)(pyrimidin-2-ylamino)phenyl]benzamide methanesulfonate], for which the “Hanging Test score” value in data set [1] (NPC mice) was “increased the scores”. Moreover, in data set [1] (wild type mice), the “effect on locomotor activity (Hanging Test)” value is “does not affect the locomotor activity”. For the same compound, in data set [2] (NPC mice, 50 mg/Kg daily intraperitoneally for 28 days, immunofluorescence), the “calbindin positive areas for Purkinje neurons” value is listed as “significant increase”. The “death of Purkinje neurons (calbindin immunohistochemistry)” value in data set [2] (NPC mice, 50 mg/Kg daily intraperitoneally for 28 days, vs saline) is recorded as “reduces the death of Purkinje neurons”. Besides, the calbindin staining entry in data set [2] (mouse, in vivo, ip, 50 mg/kg) is listed as “does not affect the calbindin staining”. Further, in data set [3], the “apoptosis in cerebella (TUNEL)” value was “decreases apoptosis” and the “number of TUNEL positive cells” value was “significantly less”.
